Reference: paper PMC7483518, “Destabilizing single chain major histocompatibility complex class I protein for repurposed enterokinase proteolysis” (Scientific Reports, 2020)
Read-outs that look alike come from different tables or passages of the source.

How the values were obtained:
[1] = test system: HLA-A*11:01 single chain protein; format: biochemical, Human; parameters: EZ50kDa / EZ50kD (pH 6.2) / EZ50kD (pH 8) / EZ50kD (normalised: EBV1101 = 1, EBV0201 = 0) / EZ50kDa rank: unit not given beside the values; settings: for EZ50kDa: Table 3, EGFR peptide library (n = 177, duplicated), 14 h;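 as to EZ50kD (pH 6.2): scaled with positive control peptide as 1 and negative control peptide as 0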;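 as to EZ50kDa: intact 50 kDa band volume scaled with positive control peptide as 1 and negative as 0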
[2] = biological target: photolabile unchained HLA-A*11:01 pMHC-I protein (Homo sapiens, UniProt P04439, A114D/D185E/E176A/F33Y/L180Q/S129P/T187R); test: ELISA with photolabile unchained pMHC-I protein and UV irradiation; format: binding
[3] = EASY MHC-I A*11:01, run 2019-08-06, 5min, mean of 2 replicates
[4] = Table 2, pH 6.2, 37 °C, enterokinase, Eq. (4), instability cutoff < 0.3
[5] = Table 2, 62.5 nM photolabile pMHC-I mixture, 5 μM peptide in PBS, UV 365 nm 2 × 5 min on ice, 2 h room temperature on anti-β2m plate, Abs450nm − Abs570nm, instability cutoff < 0.6
[6] = EASY MHC-I A*11:01, 2019-07-25, mean of the 2 replicates
[7] = EASY MHC-I A*11:01, 2019-08-01, mean of the 2 replicates
[8] = pH 6.2, 37 °C, enterokinase, Eq. (4)
[9] = EASY MHC-I A*11:01, run 2019-08-07, 5min, mean of 2 replicates
[10] = EASY MHC-I A*11:01, 2019-07-26, mean of the 2 replicates
[11] = EASY MHC-I A*11:01, run 2019-08-08, 5min, mean of 2 replicates
[12] = EASY MHC-I A*11:01, gel 2019-07-17 lr1028-1036 5min, replicate 1 (lanes 1-14)
[13] = EASY MHC-I A*11:01, gel 2019-07-17 lr1028-1036 5min, replicate 2 (lanes 15-28)

| Sequence | EZ_mean [1] | EASY_mean ([2]; […], mean, STDEV) | EASY_mean [2] | other results |
| --- | --- | --- | --- | --- |
| GRAKLLGAE [LR1016] | -0.03777 |  |  | EASY_mean ([2]; ELISA signal, mean, […]): -0.02066 |
| LTSTVQLIM [TM1009] |  | -0.03424 |  | EZ_mean [1, 3]: -0.1009 |
| TVMDIISRR [reference compound] |  |  |  | EZ50kD (pH 6.2) [1, 4]: 1.086; ELISA450nm [2, 5]: 1.944 |
| KITDFGRA [LR1002] | -0.03733 | -0.007222 |  |  |
| RSFKDLLKK [reference compound] |  |  |  | EZ50kD (pH 6.2) ([1]; pH 6.2): 0.6092; ELISA450nm [2]: 1.682 |
| AIKTSPKANK [EX1012, EGFR exon 19 deletion-derived peptide] |  | 0.01176 |  | EZ_mean [1, 6]: -0.007078 |
| MPLGSLLDYVR [CS1034] | -0.06141 |  | -0.006346 |  |
| VAIKTSPKAN [EX1011] |  |  |  | EZ_mean [1, 6]: -0.03763; EASY_mean ([2]; ELISA signal, mean, […]): -0.005285 |
| TSTVQLIM [TM1001] |  | -0.02312 |  | EZ_mean [1, 3]: -0.08359 |
| MQLMPFGCLLD [TM1038] | -0.125 |  |  | EASY_mean ([2]; ELISA signal, mean, […]): -0.0584 |
| QLMPFGSLLD [CS1021] | -0.06288 |  | 0.0006677 |  |
| TSPKANKEI [EX1009] |  | -0.005092 |  | EZ_mean [1, 6]: -0.03775 |
| DFGRAKLLGAEE [LR1047] | -0.04163 |  | -0.01199 |  |
| VQLIMQLMPFG [TM1034] | -0.1329 |  |  | EASY_mean ([2]; ELISA signal, mean, […]): -0.07888 |
| ICLTSTVQLIM [TM1028] | -0.09759 | -0.04901 |  |  |
| LMPFGSLLDYV [CS1033] | -0.06309 |  | -0.01373 |  |
| FGRAKLLGAEEK [LR1048] | -0.03879 |  | -0.01082 |  |
| ICLTSTVQLIMQ [TM1039] | -0.1704 |  |  | EASY_mean ([2]; ELISA signal, mean, […]): -0.09515 |
| VAIKTSPKANKE [EX1026] |  |  | -0.02113 | EZ_mean [1, 7]: -0.1295 |
| IMQLMPFGCLL [TM1037] | -0.1199 |  |  | EASY_mean ([2]; ELISA signal, mean, […]): -0.05375 |
| FGSLLDYVREH [CS1036] | 0.04199 |  | 0.0933 | EZ50kDa [1, 8]: 0.0420 ± 0.010 |
| DFGRAKLLG [LR1014] | -0.05414 |  |  | EASY_mean ([2]; ELISA signal, mean, […]): -0.02793 |
| VQLIMQLMP [TM1013] |  | -0.03636 |  | EZ_mean [1, 9]: -0.1096 |
| PFGSLLDYVR [CS1024] | -0.007587 |  | 0.06666 |  |

| Sequence | EZ_mean [1] | EASY_mean ([2]; […], mean, STDEV) | EASY_mean [2] | other results |
| --- | --- | --- | --- | --- |
| IMQLMPFG [TM1007] |  |  |  | EZ_mean [1, 3]: -0.09302; EASY_mean ([2]; ELISA signal, mean, […]): -0.02903 |
| PFGSLLDY [CS1005] | -0.07269 |  | -0.004417 |  |
| MPFGSLLDY [CS1013] | -0.0684 |  | -0.03532 |  |
| VQLIMQLMPFGC [TM1045] | -0.1164 |  |  | EASY_mean ([2]; ELISA signal, mean, […]): -0.05081 |
| TDFGRAKLLG [LR1023] | -0.0651 | -0.02398 |  |  |
| PVAIKTSPKAN [EX1017] |  |  |  | EZ_mean [1, 10]: -0.1176; EASY_mean ([2]; ELISA signal, mean, […]): -0.01335 |
| IMQLMPFGCLLD [TM1049] | -0.08186 |  | -0.01469 |  |
| STVQLIMQLMP [TM1032] | -0.1174 |  |  | EASY_mean ([2]; ELISA signal, mean, […]): -0.06602 |
| STIPETTVVR [putative peptide, HBV, no IEDB entry] |  |  |  | EZ50kD (pH 6.2) [1, 4]: 0.3226; ELISA450nm [2, 5]: 1.391 |
| KTSPKANKEILD [EX1029] |  |  | -0.02661 | EZ_mean [1, 7]: -0.1385 |
| QLIMQLMP [TM1005] |  |  |  | EZ_mean [1, 3]: -0.1114; EASY_mean ([2]; ELISA signal, mean, […]): -0.03905 |
| IKTSPKANKEIL [EX1028] |  |  | -0.02595 | EZ_mean [1, 7]: -0.1371 |
| LIMQLMPFGCLL [TM1048] | -0.1103 |  | -0.04956 |  |
| KTSPKANKEIL [EX1021] |  | -0.001833 |  | EZ_mean [1, 10]: -0.102 |
| ITDFGRAKLL [LR1022] | -0.0609 | -0.02159 |  |  |
| VQLIMQLMPF [TM1023] |  | -0.02163 |  | EZ_mean [1, 11]: -0.03531; Norm_mean [1, 11]: -0.02177 |
| RAKLLGAEE [LR1017] | -0.04971 | -0.0266 |  |  |
| FGRAKLLG [LR1006] | -0.05388 |  |  | EASY_mean ([2]; ELISA signal, mean, […]): -0.01563 |
| IPVAIKTSPKA [EX1016] |  | -0.002293 |  | EZ_mean [1, 10]: -0.1024 |
| VQLIMQLM [TM1004] |  | -0.05004 |  | EZ_mean [1, 3]: -0.1305 |
| LIMQLMPFG [TM1015] |  | -0.03975 |  | EZ_mean [1, 9]: -0.1155 |
| STVQLIMQLMPF [TM1043] | -0.1271 | -0.05995 |  |  |
| LMPFGSLLDY [CS1022] | -0.05808 |  | 0.006828 |  |
| KTSPKANKEI [EX1014] |  | -0.002118 |  | EZ_mean [1, 10]: -0.1022 |

| Sequence | EZ_mean [1] | EASY_mean ([2]; […], mean, STDEV) | EASY_mean [2] | other results |
| --- | --- | --- | --- | --- |
| TVQLIMQLM [TM1012] |  | -0.03295 |  | EZ_mean [1, 9]: -0.1032 |
| IPVAIKTSPKAN [EX1024] |  |  | -0.02211 | EZ_mean [1, 7]: -0.1301 |
| ITDFGRAKLLGA [LR1045] | -0.0656 |  | -0.00307 |  |
| TSPKANKEIL [EX1015] |  | -0.004833 |  | EZ_mean [1, 10]: -0.1061 |
| ITDFGRAKLLG [LR1033] |  |  | -0.04357 | EZ_mean ([1]; EASY MHC-I A*11:01, gel 2019-07-17 lr1028-1036 5min, mean of 2 replicates): -0.04472; EZ50kD (normalised: EBV1101 = 1, EBV0201 = 0) [1, 12]: -0.05531; Norm (50 kDa band adj. volume normalised: Undig_37C = 1, Dig_37C = 0) [1, 12]: -0.05765; EZ50kD (normalised: EBV1101 = 1, EBV0201 = 0) [1, 13]: -0.03414; Norm (50 kDa band adj. volume normalised: Undig_37C = 1, Dig_37C = 0) [1, 13]: -0.02949 |
| TVQLIMQLMPF [TM1033] | -0.1125 | -0.06339 |  |  |
| IKTSPKANKEI [EX1020] |  |  |  | EZ_mean [1, 10]: -0.1313; EASY_mean ([2]; ELISA signal, mean, […]): -0.02309 |
| TSTVQLIMQ [TM1010] |  | -0.01875 |  | EZ_mean [1, 9]: -0.07795 |
| IKTSPKANK [EX1007] |  | -0.0128 |  | EZ_mean [1, 6]: -0.05095 |
| FGSLLDYVRE [CS1025] | -0.05956 |  | 0.005114 |  |
| TSPKANKEILDE [EX1030] |  |  | -0.0262 | EZ_mean [1, 7]: -0.138 |
| PVAIKTSPKANK [EX1025] |  |  | -0.00741 | EZ_mean [1, 7]: -0.1057 |
| KTSPKANKE [EX1008] |  | -0.00166 |  | EZ_mean [1, 6]: -0.03131 |
| KITDFGRAKL [LR1021] | -0.05252 | -0.0154 |  |  |
| DFGRAKLLGA [LR1024] | -0.06389 |  |  | EASY_mean ([2]; ELISA signal, mean, […]): -0.02296 |
| KIPVAIKTSPKA [EX1023] |  |  | -0.01234 | EZ_mean [1, 7]: -0.1135 |
| MPFGSLLDYV [CS1023] | -0.04531 |  | 0.02198 |  |
| GRAKLLGAEE [LR1026] | -0.04989 | -0.01509 |  |  |
| STVQLIMQLM [TM1021] |  | -0.01593 |  | EZ_mean [1, 11]: -0.03318; Norm_mean [1, 11]: -0.01917 |
| KTSPKANK [EX1003, EGFR exon 19 deletion-derived peptide] | 0.03406 |  | 0.02773 | EZ50kDa [1, 8]: 0.0341 ± 0.022 |
| IMQLMPFGC [TM1016] |  | -0.02516 |  | EZ_mean [1, 9]: -0.08902 |
| RAKLLGAE [LR1008] | -0.05335 | -0.01564 |  |  |
| ITQLMPFGSLLD [CS1042] | -0.03951 |  | -0.01907 |  |
| QLIMQLMPF [TM1014] |  | -0.03038 |  | EZ_mean [1, 9]: -0.09931 |
